The values below come from PubChem BioAssay (NCI).

Among the test systems are EKVX NSCLC; IGROV1 ovarian; M14 melanoma; MCF7 breast; MDA-MB-231 breast; RXF 393 renal; SK-MEL-28 melanoma; TK-10 renal.
Common to all, as to experiment: NCI tumour cell line growth inhibition, 48 h

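Step 1: Grow cells in 96-well plates. Step 2: Expose to compound for 48 hours at 5 concentrations. Step 3: Interpolate endpoints linearly; if unreached, use highest concentration. GI50 is the concentration that inhibits growth by half. TGI: total growth inhibition.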

In the case of `CCCCCCCCCCCCC(O)c1ccco1` (centres undefined), the GI50 in the assay on EKVX NSCLC was 20.8 µM; in the assay with IGROV1 ovarian it was 21.1 µM; in the assay with M14 melanoma, 21 µM; in the assay with MCF7 breast it was 29.4 µM; in the assay with MDA-MB-231 breast it was 17.4 µM; in the assay with RXF 393 renal, 24 µM. Besides, the GI50 was 24.3 µM in the assay on SK-MEL-28 melanoma and 22.8 µM with TK-10 renal. For the same molecule, the TGI was 38.8 µM with EKVX NSCLC; 42.7 µM with IGROV1 ovarian; 37.9 µM with M14 melanoma; over 100 µM with MCF7 breast; 32.7 µM in the assay with MDA-MB-231 breast; 44.7 µM in the assay with RXF 393 renal. In addition, the TGI was 55.3 µM in the assay with SK-MEL-28 melanoma and 40.9 µM in the assay with TK-10 renal.
Turning to `CC(=O)N1CCN(CCNC(=O)n2cc(-c3ccncc3)c(-c3cc(O)cc(Cl)c3)n2)CC1`, the GI50 was 24.6 µM with EKVX NSCLC; 18.5 µM with IGROV1 ovarian; 1.23 µM in the assay with M14 melanoma; 14.7 µM with MCF7 breast; 11.7 µM in the assay with MDA-MB-231 breast; 3.67 µM in the assay with RXF 393 renal. For the same molecule, the GI50 with SK-MEL-28 melanoma is 3.92 µM; in the assay on TK-10 renal, 21.8 µM. The TGI is over 100 µM in the assay with EKVX NSCLC; 55.1 µM in the assay on IGROV1 ovarian; 4.87 µM in the assay with M14 melanoma; 32.9 µM in the assay with MCF7 breast; 26.7 µM with MDA-MB-231 breast; 17.7 µM in the assay on RXF 393 renal. The TGI in the assay with SK-MEL-28 melanoma was 16.8 µM; in the assay on TK-10 renal, 50.1 µM.
Regarding `COc1cccc2cc(N(C)c3nc(C)nc4c3CCC4)ccc12`, the GI50 with EKVX NSCLC, in the assay with IGROV1 ovarian, in the assay with M14 melanoma, in the assay on MCF7 breast, in the assay with MDA-MB-231 breast and with RXF 393 renal was under 0.01 µM each time. The GI50 with SK-MEL-28 melanoma is 4.7 µM; with TK-10 renal it was 9.32 µM. Further, the TGI in the assay with EKVX NSCLC is 30.7 µM; in the assay on IGROV1 ovarian, 23.9 µM; with M14 melanoma, 14 µM; in the assay on MCF7 breast it was 14.6 µM; with MDA-MB-231 breast, 14.7 µM; with RXF 393 renal, 23.7 µM. Also, the TGI with SK-MEL-28 melanoma worked out at 21.6 µM; in the assay on TK-10 renal, 30.5 µM.
For `O=C1CSC(c2ccccc2Cl)N1c1nnc(Cn2cnnc2)o1` (centres undefined), the GI50 with EKVX NSCLC was 22.3 µM; in the assay on IGROV1 ovarian, 17 µM; in the assay on M14 melanoma, 6.06 µM; in the assay on MCF7 breast it was 1.63 µM; in the assay on MDA-MB-231 breast, 12.1 µM; in the assay on RXF 393 renal, 24.3 µM. Besides, the GI50 is 12.3 µM in the assay with SK-MEL-28 melanoma and 22.8 µM with TK-10 renal. For the same molecule, the TGI in the assay on EKVX NSCLC was over 100 µM; in the assay with IGROV1 ovarian, over 100 µM; in the assay on M14 melanoma it was 24.7 µM; in the assay with MCF7 breast, 13.2 µM; in the assay on MDA-MB-231 breast it was 29.9 µM; in the assay on RXF 393 renal it was 79.4 µM. Further, the TGI with SK-MEL-28 melanoma was 45.8 µM; in the assay with TK-10 renal, 81.9 µM.
Take `Cc1ccc([N+](=O)[O-])c2c(NCCNC(=O)c3cc(C(=O)NCCNc4ccnc5c(C)ccc([N+](=O)[O-])c45)n(C)n3)ccnc12`: the TGI in the assay on EKVX NSCLC is over 100 µM; in the assay with IGROV1 ovarian, over 100 µM; with M14 melanoma, over 100 µM; with MCF7 breast, over 21.5 µM; with MDA-MB-231 breast, over 84.8 µM; in the assay with RXF 393 renal it was over 100 µM. Also, the TGI with SK-MEL-28 melanoma is over 78 µM; in the assay with TK-10 renal it was over 100 µM.
With `CN=C1C=CC(=C(c2ccc(N(C)C)cc2)c2ccc(N(C)C)cc2)C=C1`, the GI50 is 0.237 µM in the assay on EKVX NSCLC; 0.42 µM in the assay with IGROV1 ovarian; 0.28 µM in the assay with M14 melanoma; 0.308 µM with MCF7 breast; 0.267 µM in the assay with MDA-MB-231 breast; 0.207 µM with RXF 393 renal. Also, the GI50 with SK-MEL-28 melanoma was 0.482 µM; in the assay on TK-10 renal it was 0.218 µM. For the same molecule, the TGI was 2.62 µM with EKVX NSCLC; 6.38 µM in the assay with IGROV1 ovarian; 1.08 µM with M14 melanoma; 1.05 µM in the assay with MCF7 breast; 0.785 µM in the assay with MDA-MB-231 breast; 0.583 µM with RXF 393 renal. The TGI with SK-MEL-28 melanoma amounted to 2.07 µM; in the assay with TK-10 renal, 1.14 µM.
For the molecule `O=C1/C(=C/c2ccc(F)cc2)CN(C(=O)CCN2CCC(=NO)CC2)C/C1=C\c1ccc(F)cc1`, the GI50 with EKVX NSCLC is 2.19 µM; in the assay with IGROV1 ovarian it was 1.43 µM; in the assay with M14 melanoma it was 1.17 µM; in the assay on MCF7 breast it was 0.768 µM; in the assay on MDA-MB-231 breast, 1.37 µM; in the assay on RXF 393 renal, 1.64 µM. The GI50 in the assay on SK-MEL-28 melanoma is 1.85 µM; with TK-10 renal, 2.21 µM. Also, the TGI was determined as 5.9 µM in the assay with EKVX NSCLC; 3.42 µM in the assay on IGROV1 ovarian; 3.69 µM in the assay with M14 melanoma; 4.59 µM with MCF7 breast; 3.54 µM in the assay with MDA-MB-231 breast; 3.18 µM in the assay on RXF 393 renal. The TGI in the assay on SK-MEL-28 melanoma stood at 4.1 µM; in the assay with TK-10 renal, 6.1 µM.
As to `O=C(O)/C(Cc1cn[nH]n1)=N\O`, the TGI in the assay on EKVX NSCLC, with IGROV1 ovarian, with M14 melanoma, in the assay on MCF7 breast, with MDA-MB-231 breast and with RXF 393 renal was over 100 µM throughout. In addition, the TGI in the assay with SK-MEL-28 melanoma and in the assay on TK-10 renal was over 100 µM in each case.
Regarding `CC/C(Cc1ccccc1)=C(\c1ccc(OCCN2CCCC2)cc1)c1ccc(OC(=O)NCc2ccccc2)cc1`, the GI50 in the assay on EKVX NSCLC is 2.37 µM; with IGROV1 ovarian, 1.93 µM; in the assay with M14 melanoma it was 1.73 µM; in the assay with MCF7 breast, 0.0994 µM; in the assay with MDA-MB-231 breast, 1.84 µM; with RXF 393 renal, 1.77 µM. The GI50 in the assay with SK-MEL-28 melanoma is 1.72 µM; in the assay with TK-10 renal, 1.76 µM. The TGI was determined as 7.39 µM in the assay on EKVX NSCLC; 3.87 µM in the assay on IGROV1 ovarian; 3.31 µM with M14 melanoma; 2.16 µM in the assay with MCF7 breast; 3.35 µM in the assay with MDA-MB-231 breast; 3.28 µM in the assay with RXF 393 renal. The TGI is 3.18 µM in the assay with SK-MEL-28 melanoma and 3.5 µM in the assay on TK-10 renal.
In the case of `O=C(CN(/C=C/C(=O)C(F)(F)F)c1ccc(Cl)cc1)c1ccc(Cl)c(Cl)c1`, the GI50 in the assay with EKVX NSCLC was 14.5 µM; in the assay with IGROV1 ovarian it was 6.8 µM; in the assay on M14 melanoma, 6.51 µM; in the assay with MCF7 breast it was 3.42 µM; with MDA-MB-231 breast, 7.05 µM; with RXF 393 renal, 14.1 µM. The GI50 in the assay on SK-MEL-28 melanoma is 16.7 µM; with TK-10 renal, 7.38 µM. The TGI is 29.3 µM in the assay with EKVX NSCLC; 22.1 µM in the assay with IGROV1 ovarian; 19.3 µM in the assay on M14 melanoma; 16.6 µM in the assay with MCF7 breast; 20.9 µM in the assay on MDA-MB-231 breast; 36.1 µM with RXF 393 renal. Besides, the results for the TGI in the assay on SK-MEL-28 melanoma and with TK-10 renal were 45 µM and 20.1 µM, respectively.
